The values that follow come from patent US5496849A, “Sulfonic acid derivative and its pharmaceutical application” (Toray Industries, Inc., priority 1992, dated 1996).

By IC50 is commonly meant the concentration needed to halve the response being measured.

Assay [1] relates to vasoconstriction of rat thoracic aorta induced by U-46619. As to the kind of experiment: Vasoconstriction inhibitory action (U-46619-induced constriction of thoracic aorta spiral specimens). The conditions noted are these: 10 min, pH 7.4, minimum concentration at which inhibition rate was 50% or more, 10 ng/ml U-46619, drug applied 10 minutes, 37° C., read-out: Vasoconstriction Inhibitory Action MIC. On the set-up: species or system long Evans rats. The method, then:
Male and female long Evans rats having body weights of 150-200 g were used in this example. After sacrificing the animals by decapitation, the thoracic aorta was removed, and the outer membrane was peeled off to obtain I2 spiral specimens roughly 2 cm in length. Blood vessel specimens were warmed to 37° C. and preserved in a Magnus tube containing 10 ml of a nutrient solution aerated with 95% oxygen+5% carbon dioxide gas. The nutrient solution contained 118.3 mmol of NaCl, 4.7 mmol of KCl, […] of CaCl, 1.2 mmol of MgSO4, 1.2 mmol of KH2 PO4, 25 mmol of NaCHO3, 11.1 mmol of D-glucose, 0.03 mmol of EDTA along with 1 μg/ml each of atropin, phentolamine, mepiramine, cyproheptadine, propranolol and indometacin, and was adjusted to a pH of 7.4. Vasoconstriction was measured using an isometric transducer (Harward UF-1 Transducer and Sekonic SS-250F Graph recorder). An equilibration time of 3 hours was provided after the blood vessels were installed on the Magnus device, and fresh nutrient solution was replaced every 30 minutes during that time. […] of U-46619, having TXA2 action (to reach roughly 75% of maximum constriction), was applied for 30 minutes to constrict the vessels. The maximum stable constriction during this time was taken to be the control constriction (C1). Next, the blood vessels were washed several times with nutrient solution to remove the drug. After allowing a recovery period of 30 minutes, the test drugs were applied at various concentrations for 10 minutes followed by again constricting the vessels by applying 10 ng/ml of U-46619 for 30 minutes. The maximum stable constriction during this time was taken to be the constriction of the test drugs (C2). The inhibition rates of vasoconstriction induced by the drugs and U-46619 were determined according to the following formula, and the minimum concentration at which the inhibition rate was 50% or more was determined as the minimum inhibitory concentration (MIC).
((C1-C2)/C1)×100=Inhibition rate (%)

For assay [2], the system named is platelet aggregation induced by U-46619 in human platelet-rich plasma (PRP). The experiment in a line: Platelet aggregation inhibitory action (U-46619-induced, human platelet-rich plasma). Conditions: compounds added 1 minute before U-46619, turbidity. In kind it is cell-based. As to the method: Human whole blood drawn from the median cubital vein was centrifuged for 10 minutes at 800 rpm, and the upper portion was collected as platelet-rich plasma (PRP). […] The size of the aggregates were measured with a platelet aggregate measuring instrument (Hematracer 1, Nikko Bioscience) as the change in turbidity. The compounds were added 1 minute before addition of U-46619, and the concentration which inhibits aggregation by 50% was calculated as the IC50 value.

Assay [3] concerns the target T1, Thromboxane A2 Receptor (Oryctolagus cuniculus, UniProt Q6WQI8).
T1 sequence (Q6WQI8 1-233): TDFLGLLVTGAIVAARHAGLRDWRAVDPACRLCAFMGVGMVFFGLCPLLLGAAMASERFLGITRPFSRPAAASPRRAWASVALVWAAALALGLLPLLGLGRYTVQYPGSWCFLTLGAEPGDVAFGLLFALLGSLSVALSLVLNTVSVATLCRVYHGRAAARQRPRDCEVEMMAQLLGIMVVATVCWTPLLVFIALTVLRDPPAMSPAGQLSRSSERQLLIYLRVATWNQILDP
The experiment in a line: Receptor binding experiment: Thromboxane A2 Receptor Binding Test ([3H]SQ29548, washed platelets). Further details: species or system New Zealand White rabbits. Conditions: rabbit washed platelets; [3H]SQ29548 3 nM; 60 minutes at 25° C.; read-out: Binding Inhibitory Action IC50 (converted). The method, then: Whole blood from New Zealand White rabbits was collected into a container containing ACD solution (1.175 g of sodium citrate, 0.685 g of citric acid, and 1 g of dextrose dissolved in 50 ml of distilled water) followed by centrifuging at room temperature for 10 minutes at 180 ×g to obtain platelet-rich plasma. Moreover, this platelet-rich plasma was further centrifuged at room temperature and 2800 ×g to result in sedimentation of the platelets. The platelets were resuspended in 50 mM Tris hydrochloric acid buffer solution (pH 7.2, containing […]) and again centrifuged at 4° C. for 15 minutes at 2800 ×g. This procedure was repeated twice to prepare the washed platelets, and adjusted to a final concentration of 10 mg/ml (wet weight). Tritium-labelled SQ29548 ([3H]SQ29548) was used for the TXA2 ligand. In an antagonism experiment, 20 μl of [3H]SQ29548 at a final concentration of 3 nM were added to 500 μl of a 10 mg/ml platelet suspension, together with adding 2.6 μl of the test drug dissolved in a suitable buffer. After incubating for 60 minutes at 25° C., the mixture was filtered over a glass filter using the Celherbster method, the filter was washed with 50 mM Tris hydrochloric acid buffer solution (3 ×4 ml), and radioactivity was measured with a scintillation counter to determine the amount of [3H]SQ29548 bound to the platelets. In addition, in a saturation test, 20 μl of [3H]SQ29548 were added to a final concentration of 0.1-50 nM followed by the addition of 2.6 μl of BM13505 at a final concentration of 1 μM in order to examine non-specific binding and carry out a binding experiment. The concentration of the test drug which inhibited binding of [3H]SQ29548 by 50% was determined as the IC50 value.

Consider `COc1ccc(S(=O)(=O)N[C@@H]2[C@H]3c4cccc(OCC(=O)O)c4O[C@H]3C[C@H]2O)cc1` (racemic) [(51), (1RS, 2RS, 3aSR, 8bRS)-1-(p-methoxybenzenesulfonamido)-2-hydroxy-2,3,3a,8b-tetrahydro-1H-cyclopenta[b]benzofuran-5-yloxyacetic acid], for which the minimal effective concentration in assay [1] turned out to be 0.1 µg/mL. The IC50 in assay [2] was 68 nM; in assay [3], 27.6 nM.

On to `O=C(O)COc1cccc2c1O[C@H]1C[C@@H](O)[C@H](NS(=O)(=O)c3ccc(F)cc3)[C@@H]21` (racemic) [(53), (1RS, 2RS, 3aSR, 8bRS)-1-(p-fluorobenzenesulfonamido)-2-hydroxy-2,3,3a,8b-tetrahydro-1H-cyclopenta[b]benzofuran-5-yloxyacetic acid], for which the minimal effective concentration in assay [1] stood at 0.05 µg/mL. The IC50 is 33 nM in assay [2] and 21 nM in assay [3].

With `O=C(O)COc1cccc2c1O[C@H]1C[C@@H](O)[C@H](NS(=O)(=O)c3ccc(Cl)cc3)[C@@H]21` (racemic) [(55), (1RS, 2RS, 3aSR, 8bRS)-1-(p-chlorobenzenesulfonamido)-2-hydroxy-2,3,3a,8b-tetrahydro-1H-cyclopenta[b]benzofuran-5-yloxy acetic acid], the minimal effective concentration in assay [1] was determined as 0.1 µg/mL. In addition, the IC50 is 17 nM in assay [2] and 3.18 nM in assay [3].

On to `O=C(O)COc1cccc2c1O[C@H]1C[C@@H](O)[C@H](NS(=O)(=O)c3cccc(Cl)c3)[C@@H]21` (racemic) [(57), (1RS, 2RS, 3aSR, 8bRS)-1-(m-chlorobenzenesulfonamido)-2-hydroxy-2,3,3a,8b-tetrahydro-1H-cyclopenta[b]benzofuran-5-yloxyacetic acid], for which the minimal effective concentration in assay [1] is 0.01 µg/mL. The IC50 in assay [2] was 41 nM; in assay [3] it was 22.7 nM.

For `O=C(O)COc1cccc2c1O[C@H]1C[C@@H](O)[C@H](NS(=O)(=O)c3ccc(Br)cc3)[C@@H]21` (racemic) [(61), (1RS, 2RS, 3aSR, 8bRS)-1-(p-bromobenzenesulfonamido)-2-hydroxy-2,3,3a,8b-tetrahydro-1H-cyclopenta[b]benzofuran-5-yloxyacetic acid], the minimal effective concentration in assay [1] was found to be 0.03 µg/mL. The figures for the 50% inhibitory concentration (IC50) in assay [2] and in assay [3] were 44 nM and 2.06 nM, respectively.

As to `O=C(O)COc1cccc2c1O[C@H]1C[C@@H](O)[C@H](NS(=O)(=O)c3ccc(I)cc3)[C@@H]21` (racemic) [(63), (1RS, 2RS, 3aSR, 8bRS)-1-(p-iodobenzenesulfonamido)-2-hydroxy-2,3,3a,8b-tetrahydro-1H-cyclopenta[b]benzofuran-5-yloxyacetic acid], the minimal effective concentration in assay [1] came to 0.01 µg/mL. The figures for the IC50 in assay [2] and in assay [3] were 58 nM and 22.6 nM, respectively.

In the case of `O=C(O)COc1cccc2c1O[C@H]1C[C@@H](O)[C@H](NS(=O)(=O)c3ccc([N+](=O)[O-])cc3)[C@@H]21` (racemic) [(68), (1RS, 2RS, 3aSR, 8bRS)-1-(p-nitrobenzenesulfonamido)-2-hydroxy-2,3,3a,8b-tetrahydro-1H-cyclopenta[b]benzofuran-5-yloxyacetic acid], the minimal effective concentration in assay [1] stood at 0.1 µg/mL. Also, the IC50 is 140 nM in assay [2] and 910 nM in assay [3].

For the molecule `O=C(O)COc1cccc2c1O[C@H]1C[C@@H](O)[C@H](NS(=O)(=O)c3ccc(F)cc3F)[C@@H]21` (racemic) [(70), (1RS, 2RS, 3aSR, 8bRS)-1-(2,4-difluorobenzenesulfonamido)-2-hydroxy-2,3,3a,8b-tetrahydro-1H-cyclopenta[b]benzofuran-5-yloxyacetic acid], the minimal effective concentration in assay [1] is 0.03 µg/mL. The IC50 in assay [2] is 29 nM; in assay [3], 49.8 nM.

As to `O=C(O)COc1cccc2c1O[C@H]1C[C@@H](O)[C@H](NS(=O)(=O)c3ccc(Cl)c(Cl)c3)[C@@H]21` (racemic) [(72), (1RS, 2RS, 3aSR, 8bRS)-1-(3,4-dichlorobenzenesulfonamido)-2-hydroxy-2,3,3a,8b-tetrahydro-1H-cyclopenta[b]benzofuran-5-yloxyacetic acid], the minimal effective concentration in assay [1] was determined as 0.03 µg/mL. Also, the IC50 was 120 nM in assay [2] and 25.3 nM in assay [3].
